The text below walks through data of ChEMBL document CHEMBL1268880, “Investigation of 4-piperidinols as novel H3 antagonists” (Bioorg Med Chem Lett, 2010).

The target of data set [1] is Histamine H3 receptor (Mus musculus, UniProt P58406). Nature of the data set: Antagonist activity against mouse histamine H3 receptor expressed in human HT1080 cells assessed as inhibition of (R)-alpha-methylhistamine-induced increase in intracellular calcium level by FLIPR assay. Type of data set: functional, cell-based, HT-1080.
For data set [2], the target named is Histamine H3 receptor (Homo sapiens, UniProt Q9Y5N1). The experiment in a line: Antagonist activity against human histamine H3 receptor expressed in human HT1080 cells assessed as inhibition of (R)-alpha-methylhistamine-induced increase in intracellular calcium level by FLIPR assay. The format is functional, cell-based, HT-1080. Background: Calcium assays in cells follow changes in intracellular calcium, usually with a dye or a luminescent sensor.

Data set [3] is described as follows: Selectivity ratio of IC50 for mouse histamine H3 receptor to IC50 for human histamine H3 receptor.
Data set [4] deals with T1, hERG (KCNH2) (Homo sapiens, UniProt Q12809). The experiment in a line: Inhibition of human ERG at 50 uM.
The target of data set [5] is T1, hERG (KCNH2). The experiment in a line: Inhibition of human ERG at 10 uM.

pIC50: −log10 of the molar value.

Sequence of Histamine H3 receptor (Mus musculus, UniProt P58406) (P58406 whole entry): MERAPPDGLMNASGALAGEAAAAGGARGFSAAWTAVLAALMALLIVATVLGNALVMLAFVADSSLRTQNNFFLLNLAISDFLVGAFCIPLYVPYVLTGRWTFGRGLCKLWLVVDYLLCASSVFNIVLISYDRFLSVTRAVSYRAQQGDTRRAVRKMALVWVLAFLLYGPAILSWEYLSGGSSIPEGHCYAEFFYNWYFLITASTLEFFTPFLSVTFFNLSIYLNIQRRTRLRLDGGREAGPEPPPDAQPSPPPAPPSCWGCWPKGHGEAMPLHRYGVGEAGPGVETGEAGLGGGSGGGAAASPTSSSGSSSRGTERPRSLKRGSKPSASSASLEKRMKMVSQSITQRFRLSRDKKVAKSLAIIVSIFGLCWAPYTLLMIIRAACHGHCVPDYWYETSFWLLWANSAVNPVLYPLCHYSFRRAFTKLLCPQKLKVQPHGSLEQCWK
Sequence of Histamine H3 receptor (Homo sapiens, UniProt Q9Y5N1) (Q9Y5N1 whole entry): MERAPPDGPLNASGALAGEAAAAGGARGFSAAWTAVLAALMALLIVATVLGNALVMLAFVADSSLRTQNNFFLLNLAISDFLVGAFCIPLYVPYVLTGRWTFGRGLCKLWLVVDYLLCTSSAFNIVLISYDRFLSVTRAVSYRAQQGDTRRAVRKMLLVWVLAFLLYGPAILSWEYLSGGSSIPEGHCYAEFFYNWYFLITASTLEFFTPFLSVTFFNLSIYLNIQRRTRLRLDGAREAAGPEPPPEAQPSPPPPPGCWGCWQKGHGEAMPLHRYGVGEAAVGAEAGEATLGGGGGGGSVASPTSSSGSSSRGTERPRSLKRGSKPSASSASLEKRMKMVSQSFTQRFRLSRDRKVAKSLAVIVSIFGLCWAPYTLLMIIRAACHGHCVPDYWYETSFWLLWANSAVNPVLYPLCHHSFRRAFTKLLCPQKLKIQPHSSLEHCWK
T1 sequence (Q12809 whole entry): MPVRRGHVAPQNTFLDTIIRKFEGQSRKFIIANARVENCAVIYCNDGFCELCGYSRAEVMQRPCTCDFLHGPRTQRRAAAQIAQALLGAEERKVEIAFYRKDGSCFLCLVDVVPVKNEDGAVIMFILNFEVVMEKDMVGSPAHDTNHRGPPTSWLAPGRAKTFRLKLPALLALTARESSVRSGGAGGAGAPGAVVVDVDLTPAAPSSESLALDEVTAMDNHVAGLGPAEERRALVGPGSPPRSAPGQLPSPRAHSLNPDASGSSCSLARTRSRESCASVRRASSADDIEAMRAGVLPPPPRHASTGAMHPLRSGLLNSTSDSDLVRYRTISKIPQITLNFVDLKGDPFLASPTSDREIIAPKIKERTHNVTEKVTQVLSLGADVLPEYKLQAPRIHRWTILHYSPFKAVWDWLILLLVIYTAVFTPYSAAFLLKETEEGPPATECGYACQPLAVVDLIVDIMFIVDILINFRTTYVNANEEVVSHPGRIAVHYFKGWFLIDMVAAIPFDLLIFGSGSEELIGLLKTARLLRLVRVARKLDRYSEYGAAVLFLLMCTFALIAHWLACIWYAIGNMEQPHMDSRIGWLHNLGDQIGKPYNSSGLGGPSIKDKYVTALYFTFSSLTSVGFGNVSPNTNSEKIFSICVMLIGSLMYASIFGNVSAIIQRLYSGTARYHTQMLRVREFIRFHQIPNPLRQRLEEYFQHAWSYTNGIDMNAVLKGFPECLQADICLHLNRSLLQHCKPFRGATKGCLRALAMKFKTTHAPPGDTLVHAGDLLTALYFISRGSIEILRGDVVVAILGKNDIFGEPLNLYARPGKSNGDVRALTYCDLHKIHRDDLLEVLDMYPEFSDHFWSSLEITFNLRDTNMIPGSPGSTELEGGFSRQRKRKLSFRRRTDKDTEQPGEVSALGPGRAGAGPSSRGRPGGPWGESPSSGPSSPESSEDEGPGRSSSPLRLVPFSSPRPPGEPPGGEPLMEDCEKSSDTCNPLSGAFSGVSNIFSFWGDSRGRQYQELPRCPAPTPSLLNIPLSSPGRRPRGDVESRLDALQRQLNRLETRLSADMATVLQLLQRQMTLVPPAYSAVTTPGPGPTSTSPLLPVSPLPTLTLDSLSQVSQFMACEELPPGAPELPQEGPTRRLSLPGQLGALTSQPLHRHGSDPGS

In general, pIC50 refers to the negative decadic logarithm of the IC50, by convention in mol/L. In general, inhibition refers to the drop in the measured response relative to a control, in per cent. `C[C@@H]1C[C@@](O)(C#Cc2cccc3ccccc23)[C@@H](C)CN1C`: the values for the pIC50 in data set [1] and in data set [2] were 6.92 and 8.05, respectively. The Ratio IC50 in data set [3] came out at 13. Also, at 50 µM the inhibition in data set [4] was 15%.
As for `C[C@@H]1CN(C)[C@@H](C)C[C@]1(O)C#Cc1cccc2ccccc12`, the figures for the pIC50 in data set [1] and in data set [2] were 5.88 and 7.39, respectively.
In the case of `C[C@@H]1C[C@@](O)(CCc2cccc3ccccc23)[C@@H](C)CN1C`, the results for the pIC50 in data set [1] and in data set [2] were 7.07 and 8.70, respectively. Besides, the inhibition at 10 µM in data set [5] amounted to 16%.
Consider `CC1CC(O)(C#Cc2cccc3ccccc23)C(C)CN1C` (racemic), for which the pIC50 in data set [1] was 6.55; in data set [2] it was 7.96.
In the case of `CC(=O)OC1(C#Cc2cccc3ccccc23)CC(C)N(C)CC1C` (racemic), the pIC50 in data set [1] is under 5.00; in data set [2] it was 5.26.
On to `CC1CC(O)(/C=C/c2cccc3ccccc23)C(C)CN1C` (racemic), for which the results for the negative logarithm of the IC50 (pIC50) in data set [1] and in data set [2] were 6.24 and 7.70, respectively. For the same compound, in data set [5], testing at 10 µM gave an inhibition of 20%.
On to `CC1CC(O)(CCc2cccc3ccccc23)C(C)CN1C` (racemic), for which the negative-log IC50 (pIC50) in data set [1] is 6.32; in data set [2] it was 7.77. Further, the inhibition at 10 µM in data set [5] was 15%.
For `CC1CC(O)(C#Cc2ccc3ccccc3c2)C(C)CN1C` (racemic), the pIC50 in data set [1] was 6.09; in data set [2], 7.08.
On to `CC1CC(O)(CCc2ccc3ccccc3c2)C(C)CN1C` (racemic), for which the results for the pIC50 in data set [1] and in data set [2] were 6.91 and 8.70, respectively. The inhibition at 10 µM in data set [5] amounted to 0%.
For the compound `CC1CN2CCCC2CC1(O)C#Cc1cccc2ccccc12` (racemic), the figures for the pIC50 in data set [1] and in data set [2] were 6.55 and 8.30, respectively. The inhibition at 10 µM in data set [5] is 23%.
Regarding `CC1CN2CCCC2CC1(O)CCc1cccc2ccccc12` (racemic), the pIC50 was 6.46 in data set [1] and 7.85 in data set [2].
As for `CC1CC(O)(C#Cc2cccc3ncccc23)C(C)CN1C` (racemic), the results for the pIC50 in data set [1] and in data set [2] were 6.16 and 7.92, respectively. Further, testing at 10 µM in data set [5] gave an inhibition of 3%.
For `CC1CC(O)(C#Cc2cccc3cccnc23)C(C)CN1C` (racemic), the pIC50 in data set [1] is 5.01; in data set [2], 6.15.
On to `NC(=NCc1ccc(Cl)cc1)SCCCc1cnc[nH]1` [CLOBENPROPIT], for which the pIC50 in data set [1] was 9.00.
